Laboratory results published in patent US9745291B2, “PRMT5 inhibitors containing a dihydro- or tetrahydroisoquinoline and uses thereof” (Epizyme, Inc., priority 2012, dated 2017).
Where two headings read alike, the source gives them in different places.

Key:
PRMT5/MEP50 = PRMT5/MEP50 (Homo sapiens (Human), UniProt O14744); assay: PRMT5 Biochemical Assay (PRMT5/MEP50 enzyme assay on peptide substrate, 3H-SAM Flashplate); details: PRMT5 biochemical assay; read-out: Biochemical IC50
Z-138 cell line = assay: Z-138 Proliferation Assay (Cell Titer Glo, 5 days); format: cell-based; details: Z-138 cells
From the text: [formula] Z-138 Proliferation Assay
Z-138 suspension cells were purchased from ATCC (American Type Culture Collection, Manassas, Va.). RPMI/Glutamax medium, penicillin-streptomycin, heat inactivated fetal bovine serum were purchased from Life Technologies, Grand Island, N.Y., USA. V-bottom polypropylene 384-well plates were purchased from Greiner Bio-One, Monroe, N.C., USA. Cell culture 384-well white opaque plates were purchased from Perkin Elmer, Waltham, Mass., USA. Cell-Titer Glo® was purchased from Promega Corporation, Madison, Wis., USA. SpectraMax M5 plate reader was purchased from Molecular Devices LLC, Sunnyvale, Calif., USA.
Z-138 suspension cells were maintained in growth medium (RPMI 1640 supplemented with 10% v/v heat inactivated fetal bovine serum and cultured at 37° C. under 5% CO2 Under assay conditions, cells were incubated in assay medium (RPMI 1640 supplemented with 10% v/v heat inactivated fetal bovine serum and 100 units/mL penicillin-streptomycin) at 37° C. under 5% CO2.
For the assessment of the effect of compounds on the proliferation of the Z-138 cell line, exponentially growing cells were plated in 384-well white opaque plates at a density of 10,000 cells/ml in a final volume of 50 μl of assay medium. A compound source plate was prepared by performing triplicate nine-point 3-fold serial dilutions in DMSO, beginning at 10 mM (final top concentration of compound in the assay was 20 μM and the DMSO was 0.2%). A 100 nL aliquot from the compound stock plate was added to its respective well in the cell plate. […] After addition of compounds, assay plates were incubated for 5 days at 37° C., 5% CO2, relative humidity >90%.
Cell viability was measured by quantitation of ATP present in the cell cultures, adding 35 μl of Cell Titer Glo® reagent to the cell plates. Luminescence was read in the SpectraMax M5 microplate reader. The concentration of compound inhibiting cell viability by 50% was determined using a 4-parametric fit of the normalized dose response curves.

[1] = system: symmetric di-methyl arginine in Z-138 cells; assay: Z-138 Methylation Assay (In Cell Western for symmetric di-methyl arginine and DNA content); format: cell-based; details: read-out: ICW EC50
From the text: [formula] Where top and bottom are the normally allowed to float, but may be fixed at 100 or 0 respectively in a 3-parameter fit. The Hill Coefficient normally allowed to float but may also be fixed at 1 in a 3-parameter fit. Y is the % inhibition and X is the compound concentration. Z-138 Methylation Assay
Z-138 suspension cells were purchased from ATCC (American Type Culture Collection, Manassas, Va.). RPMI/Glutamax medium, penicillin-streptomycin, heat inactivated fetal bovine serum, and D-PBS were purchased from Life Technologies, Grand Island, N.Y., USA. Odyssey blocking buffer, 800CW goat anti-rabbit IgG (H+L) antibody, and Licor Odyssey infrared scanner were purchased from Licor Biosciences, Lincoln, Nebr., USA. Symmetric di-methyl arginine antibody was purchased from EMD Millipore, Billerica, Mass., USA. 16% Paraformaldehyde was purchased from Electron Microscopy Sciences, Hatfield, Pa., USA.
Z-138 suspension cells were maintained in growth medium (RPMI 1640 supplemented with 10% v/v heat inactivated fetal bovine serum and 100 units/mL penicillin-streptomycin) and cultured at 37° C. under 5% CO2.
Cell Treatment, in Cell Western (ICW) for Detection of Symmetric Di-Methyl Arginine and DNA Content.
Z-138 cells were seeded in assay medium at a concentration of 50,000 cells per mL to a 384-well cell culture plate with 50 μL per well. Compound (100 nL) from 384 well source plates was added directly to 384 well cell plate. Plates were incubated at 37° C., 5% CO2 for 96 hours. After four days of incubation, 40 μL of cells from incubated plates were added to poly-D-lysine coated 384 well culture plates (BD Biosciences 356697). Plates were incubated at room temperature for 30 minutes then incubated at 37° C., 5% CO2 for 5 hours. After the incubation, 40 μL per well of 8% paraformaldehyde in PBS (16% paraformaldahyde was diluted to 8% in PBS) was added to each plate and incubated for 30 minutes. Plates were transferred to a Biotek 405 plate washer and washed 5 times with 100 μL per well of wash buffer (1×PBS with 0.1% Triton X-100 (v/v)). Next 30 μL per well of Odyssey blocking buffer were added to each plate and incubated 1 hour at room temperature. Blocking buffer was removed and 20 μL per well of primary antibody was added (symmetric di-methyl arginine diluted 1:100 in Odyssey buffer with 0.1% Tween 20 (v/v)) and plates were incubated overnight (16 hours) at 4° C. Plates were washed 5 times with 100 μL per well of wash buffer. Next 20 μL per well of secondary antibody was added (1:200 800CW goat anti-rabbit IgG (H+L) antibody, 1:1000 DRAQ5 (Biostatus limited) in Odyssey buffer with 0.1% Tween 20 (v/v)) and incubated for 1 hour at room temperature. The plates were washed 5 times with 100 μL per well wash buffer then 1 time with 100 μL per well of water. Plates were allowed to dry at room temperature then imaged on the Licor Odyssey machine which measures integrated intensity at 700 nm and 800 nm wavelengths. Both 700 and 800 channels were scanned.
First, the ratio for each well was determined by:
Each plate included fourteen control wells of DMSO only treatment (minimum inhibition) as well as fourteen control wells for maximum inhibition treated with 3 μM of a reference compound (Background wells). The average of the ratio values for each control type was calculated and used to determine the percent inhibition for each test well in the plate. Reference compound was serially diluted three-fold in DMSO for a total of nine test concentrations, beginning at 3 μM. Percent inhibition was determined and IC50 curves were generated using triplicate wells per concentration of compound. […]

[2] = Homo sapiens, Z-138, Z-138 cells

PRMT5/MEP50, sequence (O14744 other isoform, or with tags, fused parts or gaps): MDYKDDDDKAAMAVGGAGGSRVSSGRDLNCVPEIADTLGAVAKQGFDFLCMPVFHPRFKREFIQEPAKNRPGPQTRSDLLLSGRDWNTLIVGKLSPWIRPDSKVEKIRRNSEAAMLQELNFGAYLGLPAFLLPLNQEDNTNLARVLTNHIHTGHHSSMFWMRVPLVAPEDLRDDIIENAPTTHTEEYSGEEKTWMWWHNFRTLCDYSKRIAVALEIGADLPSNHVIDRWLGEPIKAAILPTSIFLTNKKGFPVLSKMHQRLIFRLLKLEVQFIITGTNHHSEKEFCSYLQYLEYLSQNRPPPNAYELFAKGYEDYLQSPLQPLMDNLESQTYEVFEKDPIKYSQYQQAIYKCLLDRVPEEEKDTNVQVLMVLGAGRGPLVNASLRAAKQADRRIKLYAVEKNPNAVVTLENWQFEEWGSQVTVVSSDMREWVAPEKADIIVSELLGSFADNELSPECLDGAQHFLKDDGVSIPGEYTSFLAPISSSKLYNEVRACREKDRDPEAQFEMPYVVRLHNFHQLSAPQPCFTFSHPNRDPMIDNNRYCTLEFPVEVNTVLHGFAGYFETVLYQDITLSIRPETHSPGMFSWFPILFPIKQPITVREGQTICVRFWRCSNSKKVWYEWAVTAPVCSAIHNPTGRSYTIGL
PRMT5/MEP50, sequence (Q9BQA1 other isoform, or with tags, fused parts or gaps partner): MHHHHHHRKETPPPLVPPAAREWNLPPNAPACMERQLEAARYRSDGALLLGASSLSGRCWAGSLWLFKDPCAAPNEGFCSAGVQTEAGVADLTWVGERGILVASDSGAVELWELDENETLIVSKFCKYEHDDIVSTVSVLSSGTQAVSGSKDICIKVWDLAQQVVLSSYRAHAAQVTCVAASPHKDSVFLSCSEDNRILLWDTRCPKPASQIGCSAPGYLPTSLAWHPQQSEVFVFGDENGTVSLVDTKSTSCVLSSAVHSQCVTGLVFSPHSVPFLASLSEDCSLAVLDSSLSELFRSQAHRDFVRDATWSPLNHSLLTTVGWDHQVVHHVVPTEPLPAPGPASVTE

SMILES	IC50 (PRMT5/MEP50)	EC50 (Z-138 cell line; Homo sapiens, Z-138, 120 h)	EC50 [1, 2]	EC50 (Z-138 cell line)	EC50 ([1]; Z-138 cells)
CC1CN(S(=O)(=O)c2ccccc2OCC(=O)NC[C@@H](O)CN2CCc3ccccc3C2)CCN1C (stereo partly drawn) [Compound 211]	1 to 10 µM	> 20 µM	> 1 µM		
O=C(CCc1nc2cc(F)ccc2[nH]1)NC[C@@H](O)CN1CCc2ccccc2C1 [Compound 213]	0.101 to 1 µM	> 20 µM	0.101 to 1 µM		
CN(CCN1CCCCC1)S(=O)(=O)c1ccccc1OCC(=O)NC[C@@H](O)CN1CCc2ccccc2C1 [Compound 214]	< 0.1 µM	0.101 to 1 µM	< 0.1 µM		
NC1CN(S(=O)(=O)c2ccccc2OCC(=O)NC[C@@H](O)CN2CCc3ccccc3C2)CC1O (stereo partly drawn) [Compound 215]	< 0.1 µM	> 20 µM	> 1 µM		
CN(C)C1CN(S(=O)(=O)c2ccccc2OCC(=O)NC[C@@H](O)CN2CCc3ccccc3C2)CC1O (stereo partly drawn) [Compound 216]	0.101 to 1 µM	> 20 µM	0.101 to 1 µM		
O=C(COc1ccccc1S(=O)(=O)N1CCNC(CO)C1)NC[C@@H](O)CN1CCc2ccccc2C1 (stereo partly drawn) [Compound 217]	0.101 to 1 µM	> 20 µM	0.101 to 1 µM		
Cn1cnc(CCNC(=O)c2cccc(OCC(=O)NC[C@@H](O)CN3CCc4ccccc4C3)c2)c1 [Compound 218]	0.101 to 1 µM	> 20 µM	> 1 µM		
CN(CC1CCNC1)S(=O)(=O)c1ccccc1OCC(=O)NC[C@@H](O)CN1CCc2ccccc2C1 (stereo partly drawn) [Compound 219]	< 0.1 µM		< 0.1 µM	0.101 to 1 µM	
CN(CC1CCNC1)S(=O)(=O)c1ccccc1OCC(=O)NC[C@@H](O)CN1CCc2ccccc2C1 (stereo partly drawn) [Compound 220]	< 0.1 µM			10 to 50 µM	0.101 to 1 µM
NC1CCN(S(=O)(=O)c2ccccc2OCC(=O)NC[C@@H](O)CN2CCc3ccccc3C2)C1 (stereo partly drawn) [Compound 221]	< 0.1 µM	10 to 50 µM	0.101 to 1 µM		
Cn1c(CCC(=O)NC[C@H](O)CN2CCc3ccccc3C2)nc2ccccc21 [Compound 222]	0.101 to 1 µM	1 to 10 µM	0.101 to 1 µM		
O=C(COc1nc2ccccc2[nH]1)NC[C@H](O)CN1CCc2ccccc2C1 [Compound 223]	0.101 to 1 µM	1 to 10 µM	0.101 to 1 µM		
Cc1ccc2[nH]c(CCC(=O)NC[C@H](O)CN3CCc4ccccc4C3)nc2c1 [Compound 224]	< 0.1 µM	1 to 10 µM	< 0.1 µM		
O=C(CCc1nc2cc(F)ccc2[nH]1)NC[C@H](O)CN1CCc2ccccc2C1 [Compound 225]	< 0.1 µM	0.101 to 1 µM	< 0.1 µM		
O=C(CCc1nc2cc(Cl)ccc2[nH]1)NC[C@H](O)CN1CCc2ccccc2C1 [Compound 226]	< 0.1 µM	0.101 to 1 µM	< 0.1 µM		
O=C(CCc1nc2c(Cl)cccc2[nH]1)NC[C@H](O)CN1CCc2ccccc2C1 [Compound 227]	< 0.1 µM	0.101 to 1 µM	< 0.1 µM		
CN(C[C@H](O)CN1CCc2ccccc2C1)C(=O)CCc1nc2ccccc2[nH]1 [Compound 228]	< 0.1 µM	0.101 to 1 µM	< 0.1 µM		
O=C(CCc1cn2ccccc2n1)NC[C@H](O)CN1CCc2ccccc2C1 [Compound 229]	0.101 to 1 µM	10 to 50 µM	0.101 to 1 µM		

SMILES	IC50 (PRMT5/MEP50)	EC50 (Z-138 cell line; Homo sapiens, Z-138, 120 h)	EC50 [1, 2]	EC50 (Z-138 cell line)	EC50 ([1]; Z-138 cells)
Cn1cncc1CCNC(=O)c1cccc(OCC(=O)NC[C@@H](O)CN2CCc3ccccc3C2)c1 [Compound 231]	0.101 to 1 µM	> 20 µM	> 1 µM		
CN(CC1CNC1)S(=O)(=O)c1ccccc1OCC(=O)NC[C@@H](O)CN1CCc2ccccc2C1 [Compound 232]	< 0.1 µM	1 to 10 µM	< 0.1 µM		
Cn1cnc(-c2cccc(OCC(=O)NC[C@@H](O)CN3CCc4ccccc4C3)c2)c1 [Compound 234]	0.101 to 1 µM	> 20 µM	> 1 µM		
O=C(COc1ccccc1[C@@H]1CCCCN1)NC[C@@H](O)CN1CCc2ccccc2C1 [Compound 236]	0.101 to 1 µM	10 to 50 µM	> 1 µM		
O=C(COc1ccccc1C1CNCC(O)C1)NC[C@@H](O)CN1CCc2ccccc2C1 (stereo partly drawn) [Compound 237]	0.101 to 1 µM	> 20 µM	> 1 µM		
CN1CCC(CN(C)S(=O)(=O)c2ccccc2OCC(=O)NC[C@@H](O)CN2CCc3ccccc3C2)C1 (stereo partly drawn) [Compound 238]	< 0.1 µM	0.101 to 1 µM	< 0.1 µM		
O=C(CNc1nc2ccccc2[nH]1)NC[C@H](O)CN1CCc2ccccc2C1 [Compound 239]	< 0.1 µM	1 to 10 µM	< 0.1 µM		
O=C(CCc1ncc[nH]1)NC[C@H](O)CN1CCc2ccccc2C1 [Compound 240]	0.101 to 1 µM	10 to 50 µM	0.101 to 1 µM		
O=C(CCc1nc2c(F)cccc2[nH]1)NC[C@H](O)CN1CCc2ccccc2C1 [Compound 241]	< 0.1 µM	0.101 to 1 µM	< 0.1 µM		
COc1cccc2[nH]c(CCC(=O)NC[C@H](O)CN3CCc4ccccc4C3)nc12 [Compound 242]	< 0.1 µM	1 to 10 µM	< 0.1 µM		
O=C(CCc1nc(-c2ccccc2)c[nH]1)NC[C@H](O)CN1CCc2ccccc2C1 [Compound 243]	< 0.1 µM	1 to 10 µM	< 0.1 µM		
COCCNCCNC(=O)c1cccc(OCC(=O)NC[C@@H](O)CN2CCc3ccccc3C2)c1 [Compound 244]	< 0.1 µM	> 20 µM	> 1 µM		
Cn1ccnc1CCNC(=O)c1cccc(OCC(=O)NC[C@@H](O)CN2CCc3ccccc3C2)c1 [Compound 245]	0.101 to 1 µM	> 20 µM	> 1 µM		
CNC1CN(S(=O)(=O)c2ccccc2OCC(=O)NC[C@@H](O)CN2CCc3ccccc3C2)CC1O (stereo partly drawn) [Compound 246]	< 0.1 µM	> 20 µM	0.101 to 1 µM		
CN1CCCC(c2c(CS(C)(=O)=O)cccc2OCC(=O)NC[C@@H](O)CN2CCc3ccccc3C2)C1 (stereo partly drawn) [Compound 247]	0.101 to 1 µM	> 20 µM	> 1 µM		
COc1ccc2[nH]c(CCC(=O)NC[C@H](O)CN3CCc4ccccc4C3)nc2c1 [Compound 249]	< 0.1 µM	1 to 10 µM	< 0.1 µM		
Cc1cccc2[nH]c(CCC(=O)NC[C@H](O)CN3CCc4ccccc4C3)nc12 [Compound 250]	< 0.1 µM	1 to 10 µM	< 0.1 µM		
